Reference: patent US20250034210A1, “DLL3 TARGETING PEPTIDES AND CONSTRUCTS THEREOF” (MARIANA ONCOLOGY INC., priority 2023, published 2025)
*1 amine or outer side, *2 acyl side, *3 side chain or, on linkers, in order; H or OH if unused. Where a SMILES comes first, the peptide text is derived from it. Bridges are numbered along the chain shown (N, C = ends). [ ]: non-standard residue; d: D form. The star is where a group is joined. DOTA = O=C(O)CN1CCN(CC(=O)O)CCN(CC(=O)*)CCN(CC(=O)O)CC1; Pro(4S-NH2) = N[C@@H]1CN[C@H](C(=O)O)C1; γGlu = O=C(O)[C@H](CCC(=O)[*:2])N[*:1]; Ahx = NCCCCCC(=O)O

Legend:
human DLL3 = biological target: T1, human DLL3 (Homo sapiens, UniProt Q9NYJ7); assay: Affinity determination by Surface Plasmon Resonance (SPR), biotinylated human DLL3 immobilized on streptavidin sensor chip; settings: 25° C., Biacore, 1:1 binding model
T1 construct: biotin (biotinylated)
T1 sequence (Q9NYJ7 27-618): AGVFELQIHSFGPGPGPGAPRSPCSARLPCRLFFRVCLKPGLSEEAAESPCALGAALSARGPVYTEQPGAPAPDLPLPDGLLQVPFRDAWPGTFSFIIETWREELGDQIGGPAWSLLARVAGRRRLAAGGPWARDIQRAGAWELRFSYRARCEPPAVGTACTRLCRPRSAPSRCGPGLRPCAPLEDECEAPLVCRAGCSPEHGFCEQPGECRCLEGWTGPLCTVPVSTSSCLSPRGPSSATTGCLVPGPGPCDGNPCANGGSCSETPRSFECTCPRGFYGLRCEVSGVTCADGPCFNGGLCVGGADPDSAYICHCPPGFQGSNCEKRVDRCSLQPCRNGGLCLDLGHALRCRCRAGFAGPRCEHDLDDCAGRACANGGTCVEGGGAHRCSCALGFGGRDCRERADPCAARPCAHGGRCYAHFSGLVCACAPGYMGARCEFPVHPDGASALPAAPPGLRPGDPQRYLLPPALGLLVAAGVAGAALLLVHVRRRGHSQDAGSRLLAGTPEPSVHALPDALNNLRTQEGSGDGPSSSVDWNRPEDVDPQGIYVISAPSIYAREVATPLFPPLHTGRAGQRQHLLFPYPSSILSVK
Description: Affinity Determination by Surface Plasmon Resonance (SPR). SPR studies were performed on the compounds disclosed herein using the following protocol.
The binding affinity and binding kinetic parameters at 25° C. were determined using Biacore S200 or biacore 8K instrument. Biotinylated target ligand human DLL3 was immobilized on a streptavidin sensor chip. A reference surface was set up for nonspecific binding and refractive index changes. For analysis of the kinetics of interactions, varying concentrations of samples were injected at a flow rate of 100 μL/min using running buffer containing 20 mM phosphate buffer with 2.7 mM KCl, 137 mM NaCl, 0.05% Surfactant P20 and 2% DMSO. Sensorgram curves were fitted with 1:1 binding model, and affinity and kinetic parameters were obtained using Biacore Insight evaluation 4.0. software.

SHP-77 tumors = assay: Ex vivo biodistribution of radiolabeled peptides in nude mice bearing SHP-77 tumors; settings: [^177Lu]Lu labelling; nude mice bearing SHP-77 tumors (n = 3); 24 hours post-injection; intravenous
Description: [^177Lu]LuCl3 was received from venders in HCl solution. For every mCi of [^177Lu]LuCl3 added to the reaction vial (1.5 mL Eppendorf vial), ammonium acetate buffer (0.2 M, pH 4.9, 100 μL, containing 1% w/v ascorbic acid and 6% v/v ethanol) and peptide conjugate (1 nmol also referred to herein as “chelator-peptides”) was added. A peptide conjugate of the present disclosure is also referred to herein as a “chelator-peptide”. The pH of the solution was determined to be approximately 5 by using pH strips. The reaction vial was incubated at 80° C., 700 RPM for 17-20 minutes. A sample from the reaction was analyzed by RP-HPLC using an Agilent Infinity II 1260 HPLC to determine reaction completion and radiochemical purity of [^177Lu]Lu-chelator-peptide. HPLC conditions: Waters XBridge BEH C18 Column, 130 A, 3.5 um, 4.6 mm×250 mm; mobile phase: Solvent A=water (with 0.1% formic acid), solvent B=acetonitrile (with 0.1% formic acid). Gradients: 25-45% B in 10 minutes, 45-65% B in 12 minutes, 65-90% in 6 minutes at a flow rate of 0.5 mL/min. Required amounts of the product was formulated in 1% PBSA for cell studies.
Mice were intravenously injected (via the lateral tail vein) with a bolus dose of the radiolabeled peptides for ex vivo biodistribution studies when tumor volumes were in range of 200-400 mm^3 for xenograft mice and when age of the mice was 5-7 weeks for tumor naïve mice studies. To assess the amount of radionuclide injected into individual mice the syringe was assayed in a dose calibrator before and after injection for [^177Lu]Lu-peptide.
Mice were euthanized at pre-determined time points and selected tissues were resected and collected into pre-weighed tubes. The tubes were then reweighed post resection, the difference giving the weight of each tissue. Radioactivity in each tissue was measured using a gamma counter. Counts were decay corrected to the time of injection and percentage of injected activity per gram (% IA/g) was calculated for each tissue based on the injected activity into each individual mouse. Injected activity was converted to counts based on the sensitivity of the gamma counter. The counts in tissue were then converted to the percentage of injected activity and this was divided by the mass of tissue to give % IA/g.

| Kd (human DLL3) [nM] | kidney uptake (% IA/g) (SHP-77 tumors) | tumor uptake (% IA/g) (SHP-77 tumors) | SMILES |
| --- | --- | --- | --- |
| 1 to 10 | D (% IA/g > 10 in kidney) | A (0 < % IA/g ≤ 5 in tumor) | CC[C@H](C)[C@H](NC(=O)[C@@H](NC(=O)[C@H](Cc1c[nH]c2ccccc12)NC(=O)CCCCCNC(=O)CN1CCN(CC(=O)O)CCN(CC(=O)O)CCN(CC(=O)O)CC1)[C@@H](C)O)C(=O)N[C@H]1CSSC[C@@H](C(=O)N[C@@H](Cc2c[nH]c3ccccc23)C(=O)N2CCC[C@@H]2C(N)=O)NC(=O)[C@H](CC(=O)O)NC(=O)[C@H](Cc2cnc[nH]2)NC(=O)[C@H](Cc2c[nH]c3ccccc23)NC(=O)[C@H](CC(N)=O)NC(=O)[C@H](CC(N)=O)NC1=O [compound 18, DOTA-Ahx-W-T-I-C(3)-N-N-W-H-D-C(3)-W-P-CONH2] ({DOTA-Ahx}-WTICNNWHDCW[dP]-NH2; disulfide 4-10) |
| – | D (% IA/g > 10 in kidney) | A (0 < % IA/g ≤ 5 in tumor) | CC[C@H](C)[C@H](NC(=O)[C@@H](NC(=O)[C@H](Cc1c[nH]c2ccccc12)NC(=O)CC[C@H](NC(=O)CC[C@H](NC(=O)CC[C@H](NC(=O)CN1CCN(CC(=O)O)CCN(CC(=O)O)CCN(CC(=O)O)CC1)C(=O)O)C(=O)O)C(=O)O)[C@@H](C)O)C(=O)N[C@H]1CSSC[C@@H](C(=O)N[C@@H](Cc2c[nH]c3ccccc23)C(=O)N2CCC[C@H]2C(N)=O)NC(=O)[C@H](CC(=O)O)NC(=O)[C@H](Cc2c[nH]cn2)NC(=O)[C@H](Cc2c[nH]c3ccccc23)NC(=O)[C@H](CC(N)=O)NC(=O)[C@H](CC(N)=O)NC1=O [compound 82, DOTA-(gE)3-W-T-I-C(3)-N-N-W-H-D-C(3)-W-P-CONH2] ({DOTA-γGlu-γGlu-γGlu}-WTICNNWHDCWP-NH2; disulfide 4-10) |
| 10 to 100 | – | – | CC[C@H](C)[C@H](NC(=O)[C@@H](NC(=O)[C@H](Cc1c[nH]c2ccccc12)NC(=O)CCCCCNC(=O)CN1CCN(CC(=O)O)CCN(CC(=O)O)CCN(CC(=O)O)CC1)[C@@H](C)O)C(=O)N[C@H]1CSSC[C@@H](C(=O)N[C@@H](Cc2c[nH]c3ccccc23)C(=O)N2C[C@@H](N)C[C@H]2C(N)=O)NC(=O)[C@H](CC(=O)O)NC(=O)[C@H](Cc2cnc[nH]2)NC(=O)[C@H](Cc2c[nH]c3ccccc23)NC(=O)[C@H](CC(N)=O)NC(=O)[C@H](CC(N)=O)NC1=O [compound 225, DOTA-Ahx-W-T-I-C(3)-N-N-W-H-D-C(3)-W-(cis4NH2-P)-CONH2] ({DOTA-Ahx}-WTICNNWHDCW[Pro(4S-NH2)]-NH2; disulfide 4-10) |
